Experimental data reported in article PMC8151276, “An Integrated Approach toward NanoBRET Tracers for Analysis of GPCR Ligand Engagement” (Molecules, 2021).

Target: T1, ADORA2A (Homo sapiens, UniProt P29274)
T1 construct: purchased Promega (in-house HiBiT-GPCR construct library, NanoBRET)
Experiment: NanoBRET screen HiBiT-ADORA2A in HEK293
Type: binding
Protocol: Each tracer candidate was screened across the entire library of HiBiT-GPCR constructs using NanoBRET as the detection modality. As depicted in Figure 4A, the specificity of interactions was evaluated through decrease in BRET due to competitive displacement of a bound tracer by excess parental compound. Each tracer was analyzed for binding to each HiBiT-GPCR fusion in the absence and in the presence of competing parental compound. Briefly, HEK293 cells were transfected with HiBiT-GPCR constructs diluted into promoterless DNA to reduce expression and maximize translocation to the cell surface. Each tracer candidate was then screened at concentrations of 1 μM and 0.1 μM across cells expressing these fusions. Cells were treated for 1.5 h with tracer either alone or in the presence of 20 μM competing parental compound (i.e., control). BRET was measured upon addition of purified LgBiT and subsequent complementation with HiBiT genetically fused to a GPCR. The specificity of interactions was assessed through a decrease in BRET signal due to competitive displacement of the bound tracer. To further gauge the robustness of these interactions, the fold response over the control (i.e., BRETtracer/BRETcontrol) was calculated. We chose a 1.5-fold response, which translates to ≥7-fold signal over noise as the minimal threshold required to score an interaction as positive.
HiBiT-GPCR DNA constructs were diluted in 10 mM Tris pH 8 to a final concentration of 0.01 μg/μL, arrayed in 96-well plates and stored at −20 °C. For transfection, HEK293 cells were suspended in Opti-MEM (without phenol red) supplemented with 2% fetal bovine serum (Seradigm) and 100 units/mL penicillin–streptomycin (Gibco) at a final concentration of 220,000 cells/mL and dispensed into white 96-well plates at 90 μL/well. Subsequent transfections and screens were carried using an Agilent Bravo Automated Liquid Handling Platform. First, the 96-well HiBiT DNA arrays were diluted 25-fold in Opti-MEM (without serum or phenol red) to a final concentration of 0.0004 μg/μL and 20 μL of the diluted DNAs were transferred into new 96-well plates. Next, promoterless carrier DNA (1 μg/μL) was diluted 25-fold (0.04 μg/μL) and then dispensed into the diluted arrays at 20 μL/well. Following brief mixing, Viafect transfection reagent (Promega) diluted 16-fold into Opti-MEM was dispensed into the plates at 40 μL/well. After mixing by pipetting, plates were incubated for 10 min on the pipetting station deck. The DNA-transfection reagent complexes were then added to plates containing cells. To facilitate the screen, 10 μL of DNA-transfection reagent complexes were added in duplicates to the top 4 and bottom 4 rows, resulting in two identical 48-well arrays per plate. Plates with transfected cells were incubated for 18–20 h at 37 °C/5% CO2. A screen of each tracer across the entire library using two different concentrations requires duplicate plates of transfected cells. Depending on the number of tracers being screened, transfections can be scaled up using the same ratios. The next day, for each tracer, four 20× screening solutions in tracer dilution buffer (Promega) were prepared: two duplicates at final concentration of 20 μM and two duplicates at a final concentration of 2 μM. […] The four resulting solutions were diluted 4-fold in Opti-MEM without serum or phenol red to generate 5× solutions (5 µM and 0.5 µM tracer +/− 100 μM competing compound). To screen the library, a BioTek MultiFlo FX liquid dispenser was used to dispense 22.5 µL of tracer solution to the top 4 rows and 22.5 µL tracer + competing compound solution to the 4 bottom rows. Plates were briefly mixed on an orbital shaker and incubated for 1.5 h at room temperature. […] Plates were briefly mixed on an orbital shaker and incubated for 15 min to allow complementation.

T1 sequence (P29274 whole entry): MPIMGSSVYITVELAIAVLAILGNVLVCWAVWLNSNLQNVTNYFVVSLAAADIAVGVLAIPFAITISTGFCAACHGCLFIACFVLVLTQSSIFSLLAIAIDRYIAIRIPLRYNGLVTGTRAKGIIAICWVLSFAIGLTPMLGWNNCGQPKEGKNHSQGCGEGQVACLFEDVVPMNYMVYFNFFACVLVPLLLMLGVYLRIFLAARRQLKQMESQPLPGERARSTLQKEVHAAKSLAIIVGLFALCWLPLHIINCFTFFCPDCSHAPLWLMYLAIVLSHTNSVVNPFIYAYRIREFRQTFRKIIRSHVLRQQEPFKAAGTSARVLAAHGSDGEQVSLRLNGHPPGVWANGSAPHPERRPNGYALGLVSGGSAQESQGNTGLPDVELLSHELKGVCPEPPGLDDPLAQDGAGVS

In the case of `O=C(CCOCCOCCOCCOCCNC(=O)CCc1ccc2n1[B-](F)(F)[N+]1=C(c3ccc[nH]3)C=CC1=C2)NCCCN1CCN(C2=Nc3ccccc3Oc3ccc(Cl)cc32)CC1` [Loxapine-a-2-NB590], the “NanoBRET Fold Response” value (ADORA2A, tracer 0.1μM) was 1.08 and the “NanoBRET Fold Response” value (ADORA2A, tracer 1μM) was 1.11.

In the case of `CCCn1c(=O)c2[nH]c(-c3ccc(OCC(=O)NCCNC(=O)CCOCCNC(=O)c4ccc(CNC(=O)CCc5ccc6n5[B-](F)(F)[N+]5=C(c7ccc[nH]7)C=CC5=C6)cc4)cc3)nc2n(CCC)c1=O` [XAC-3-NB590], the “NanoBRET Fold Response” value (ADORA2A, tracer 0.1μM) was 7.87 and the “NanoBRET Fold Response” value (ADORA2A, tracer 1μM) was 9.18.

`CN(C)CCC=C1c2ccccc2CCc2ccc(C(=O)NCCNC(=O)CCOCCOCCOCCOCCNC(=O)CCc3ccc4n3[B-](F)(F)[N+]3=C(c5ccc[nH]5)C=CC3=C4)cc21` [Amitriptyline-a-2-NB590] was tested, and the “NanoBRET Fold Response” value (tracer at 0.1μM) was 1.02 and the “NanoBRET Fold Response” value (tracer at 1μM) was 1.07.

For `COc1ccccc1N1CCN(CCCCN2C(=O)c3ccc(CNC(=O)CCOCCOCCOCCOCCNC(=O)CCc4ccc5n4[B-](F)(F)[N+]4=C(c6ccc[nH]6)C=CC4=C5)cc3C2=O)CC1` [NAN-190-2-NB590], the “NanoBRET Fold Response” value (ADORA2A, tracer 0.1μM) was 1.02.

In the case of `O=C(CCc1ccc2n1[B-](F)(F)[N+]1=C(c3ccc[nH]3)C=CC1=C2)NCc1ccc(C(=O)NCCOCCOCCNCC(O)COc2cccc3ccccc23)cc1` (stereo not shown) [Propranolol-3-NB590], the “NanoBRET Fold Response” value (ADORA2A, 0.1μM) was 1.05 and the “NanoBRET Fold Response” value (ADORA2A, 1μM) was 0.99.

For `COc1ccccc1N1CCN(CCCCN2C(=O)c3ccc(CNC(=O)CCOCCNC(=O)c4ccc(CNC(=O)CCc5ccc6n5[B-](F)(F)[N+]5=C(c7ccc[nH]7)C=CC5=C6)cc4)cc3C2=O)CC1` [NAN-190-3-NB590], the “NanoBRET Fold Response” value (ADORA2A, tracer 0.1μM) was 1.00 and the “NanoBRET Fold Response” value (ADORA2A, tracer 1μM) was 0.91.

In the case of `O=C(CCc1ccc2n1[B-](F)(F)[N+]1=C(c3ccc[nH]3)C=CC1=C2)NCc1ccc(C(=O)NCCOCCC(=O)N[C@@H]2CC[C@@]3(O)[C@H]4Cc5ccc(O)c6c5[C@@]3(CCN4CC3CC3)[C@H]2O6)cc1` [Naltrexone-3-NB590], the “NanoBRET Fold Response” value (ADORA2A, tracer 0.1μM) was 1.08 and the “NanoBRET Fold Response” value (ADORA2A, tracer 1μM) was 0.58.

In the case of `CCOC(=O)c1cc(C#N)c(N2CCC(C(=O)NS(=O)(=O)Cc3ccccc3/C=C/C(=O)NCCNC(=O)CCc3ccc4n3[B-](F)(F)[N+]3=C(c5ccc[nH]5)C=CC3=C4)CC2)nc1C` [AZD1283-1-NB590], the “NanoBRET Fold Response” value (ADORA2A, 0.1μM) was 1.06 and the “NanoBRET Fold Response” value (ADORA2A, 1μM) was 1.04.

In the case of `COc1ccc2[nH]c(-c3ccc(CNC(=O)CCOCCOCCOCCOCCNC(=O)CCc4ccc5n4[B-](F)(F)[N+]4=C(c6ccc[nH]6)C=CC4=C5)cc3)c(CCNC(C)=O)c2n1` [AzomelatoninICO9-2-NB590], the “NanoBRET Fold Response” value (0.1μM tracer) was 1.16 and the “NanoBRET Fold Response” value (1μM tracer) was 0.82.

In the case of `CC(C)N(CC[C@H](c1ccccc1)c1cc(CCNC(=O)CCOCCOCCOCCOCCNC(=O)CCc2ccc3n2[B-](F)(F)[N+]2=C(c4ccc[nH]4)C=CC2=C3)ccc1O)C(C)C` [Tolterodine-2-NB590], the “NanoBRET Fold Response” value (ADORA2A, tracer 0.1μM) was 1.35 and the “NanoBRET Fold Response” value (ADORA2A, tracer 1μM) was 0.95.

`CN1CCN(C2=Nc3cc(Cl)ccc3N(CC(=O)NCCOCCOCCOCCOCCNC(=O)CCc3ccc4n3[B-](F)(F)[N+]3=C(c5ccc[nH]5)C=CC3=C4)c3ccccc32)CC1` [Clozapine-c-2-NB590] was tested, and the “NanoBRET Fold Response” value (ADORA2A, 0.1μM tracer) was 1.01 and the “NanoBRET Fold Response” value (ADORA2A, 1μM tracer) was 0.94.

For `N#CN=C(NCCCOc1cccc(CN2CCCCC2)c1)NCCNC(=O)CCOCCOCCOCCOCCNC(=O)CCc1ccc2n1[B-](F)(F)[N+]1=C(c3ccc[nH]3)C=CC1=C2` [Aminopotentidine-2-NB590], the “NanoBRET Fold Response” value (ADORA2A, tracer 0.1μM) was 1.05 and the “NanoBRET Fold Response” value (ADORA2A, tracer 1μM) was 0.99.

For `COc1ccc2c(n1)c(CCNC(C)=O)cn2CCNC(=O)CCc1ccc2n1[B-](F)(F)[N+]1=C(c3ccc[nH]3)C=CC1=C2` [Azamelatonin-1-NB590], the “NanoBRET Fold Response” value (0.1μM tracer) was 0.87 and the “NanoBRET Fold Response” value (1μM tracer) was 0.92.

`CN(CCC=C1c2ccccc2CCc2ccccc21)C(=O)CCOCCOCCOCCOCCNC(=O)CCc1ccc2n1[B-](F)(F)[N+]1=C(c3ccc[nH]3)C=CC1=C2` [Amitriptyline-e-2-NB590] was tested, and the “NanoBRET Fold Response” value (tracer at 1μM) was 1.07.

`CC(C)N(CC[C@H](c1ccccc1)c1cc(CCNC(=O)c2ccc(CNC(=O)CCc3ccc4n3[B-](F)(F)[N+]3=C(c5ccc[nH]5)C=CC3=C4)cc2)ccc1O)C(C)C` [Tolterodine-BZ-NB590] was tested, and the “NanoBRET Fold Response” value (ADORA2A, tracer 0.1μM) was 1.00 and the “NanoBRET Fold Response” value (ADORA2A, tracer 1μM) was 1.01.

With `O=C(CCc1ccc2n1[B-](F)(F)[N+]1=C(c3ccc[nH]3)C=CC1=C2)NCCOCCOCCNC(=O)OCCOCCN1CCN(C2=Nc3ccccc3Sc3ccccc32)CC1` [Quetiapine-a-2-NB590] the “NanoBRET Fold Response” value (ADORA2A, tracer 0.1μM) was 0.99 and the “NanoBRET Fold Response” value (ADORA2A, tracer 1μM) was 0.91.

With `Cc1cc2c(s1)Nc1ccccc1N=C2N1CCN(CCCNC(=O)CCOCCOCCOCCOCCNC(=O)CCc2ccc3n2[B-](F)(F)[N+]2=C(c4ccc[nH]4)C=CC2=C3)CC1` [Olanzapine-a-2-NB590] the “NanoBRET Fold Response” value (ADORA2A, tracer 0.1μM) was 0.97 and the “NanoBRET Fold Response” value (ADORA2A, tracer 1μM) was 0.93.

In the case of `CN(C)CCC=C1c2ccccc2CCc2ccc(C(=O)NCCNC(=O)CCOCCOCCOCCOCCNC(=O)CCc3ccc4n3[B-](F)(F)[N+]3=C(c5ccc[nH]5)C=CC3=C4)cc21` [Amitriptyline-b-2-NB590], the “NanoBRET Fold Response” value (tracer at 0.1μM, listed as amitriptyline-b-2-NB590) was 1.07 and the “NanoBRET Fold Response” value (tracer at 1μM, listed as amitriptyline-b-2-NB590) was 1.20.

In the case of `O=C(CCOCCOCCOCCOCCNC(=O)CCc1ccc2n1[B-](F)(F)[N+]1=C(c3ccc[nH]3)C=CC1=C2)NCCCN1CCN(C2=Nc3cc(Cl)ccc3Nc3ccccc32)CC1` [Clozapine-a-2-NB590], the “NanoBRET Fold Response” value (ADORA2A, 0.1μM tracer) was 0.95 and the “NanoBRET Fold Response” value (ADORA2A, 1μM tracer) was 0.89.

In the case of `CN1CCN(C2=Nc3cc(Cl)ccc3Nc3ccc(CNC(=O)CCOCCOCCOCCOCCNC(=O)CCc4ccc5n4[B-](F)(F)[N+]4=C(c6ccc[nH]6)C=CC4=C5)cc32)CC1` [Clozapine-b-2-NB590], the “NanoBRET Fold Response” value (ADORA2A, 0.1μM tracer) was 0.97 and the “NanoBRET Fold Response” value (ADORA2A, 1μM tracer) was 1.00.

In the case of `Cc1nc2n(c(=O)c1CCN1CCC(c3noc4cc(F)ccc34)CC1)CCCC2OC(=O)NCCOCCOCCOCCOCCNC(=O)CCc1ccc2n1[B-](F)(F)[N+]1=C(c3ccc[nH]3)C=CC1=C2` (stereo not shown) [Risperidone-2-NB590], the “NanoBRET Fold Response” value (ADORA2A, tracer 0.1μM) was 0.98 and the “NanoBRET Fold Response” value (ADORA2A, tracer 1μM) was 0.98.
